# Assay results from patent publication US6812037B1, “Antimitotic compounds” (The University of British Columbia, priority 1999, dated 2004).
# Tests used:
# [1] = tested on: MCF-7 cells; experiment: ELICA of mitotic cells (Enzyme-Linked Immuno-Cytochemical assay, TG-3 antibody); assay type: cell-based, human
# Experimental: (§1) Cell Culture and Treatment. Human breast carcinoma MCF-7 cells were cultured as monolayers. The cells were seeded at 10,000 per well of 96-well polystyrene tissue culture plates (Falcon) in 200 μl medium and were allowed to grow overnight. Crude extracts of marine organisms were then added at about 10 μg/ml or 1 μg/ml, from 1000-fold stocks in dimethylsulfoxide (DMSO). Untreated samples received an equivalent amount of DMSO and several as negative controls. Cells treated with 100 ng/ml nocodazole (Sigma), from a 1000-fold stock in DMSO, served as positive controls. Cells were incubated for 16-20 hours. The relative number of cells in mitosis was then determined by microscopy, by enzyme-linked immunosorbent assay (ELISA) or by an enzyme-linked cytochemical assay (ELICA), as described below.
# ELICA of Miltotic Cells. While the ELISA is accurate and reliable, it requires transferring cell lysates to ELISA plates and many solution changes. The assay of this invention is faster and easier to use for drug screening. […] In a preferred assay of this invention, cells are fixed with formaldehyde in their microtiter culture plates and permeabilized with methanol and detergents. The TG-3 primary antibody and HRP-conjugated secondary antibody may be added sequentially but are preferably added simultaneously. Colorimetric detection of HRP activity remains unchanged. This new assay is termed: an Enzyme-Linked Immuno-Cytochemical assay (ELICA).
# After incubation with marine extracts, the medium was withdrawn carefully using a pipetor and 100 μl of 10 mM Tris-HCl (pH 7.4) 150 mM NaCl, containing 3.7% formaldehyde was added to fix the cells for 30 minutes at 4° C. The fixative was removed and replaced with 100 μl of cold (−20° C.) methanol for 5 minutes to permeabilize the fixed cells. The methanol was removed and the wells were rinsed briefly with 200 μl antibody buffer. Then, 100 μl antibody buffer containing 0.1-0.15 μg/ml TG-3 monoclonal antibody and HRP-conjugated goat anti-mouse IgM secondary antibody at a 50-fold dilution, was added to 16-20 hours at 4° C. The plates were washed twice with 200 μl 10 mM Tris-HCl pH 7.4, 0.02% Tween 20™. Then, 100 μl of 120 mM Na2HPO4, 100 mM citric acid (pH 4.0) containing […] 2,2′-azino-bis(-3ethylbenz-thiazoline-6-sulfonic acid) and 0.01% hydrogen peroxide was added for 1 hour at room temperature and the absorbance at 405 nm was measured.
# [2] = tested on: SCCVII squamous cell carcinoma; experiment: In vivo antimitotic/anticancer activity, tumor cell survival by colony formation; set-up: species or system C3H mice
# Experimental: In Vivo Antimitotic/Anticancer Activity. C3H mice of approximately 26 g bearing SCCVII squamous cell carcinoma (tumor size approximately 0.45 g) were injected intraperitoneally with desmethyleleutherobin. 24 hours later, the mice were intravenously injected with Hoechst 33342™ and then sacrificed. The tumors were removed and single cell suspensions prepared and sorted on the basis of a concentration gradient of Hoechst 33342™, to provide cells sorted according to varying distance from the blood supply. The cells were plated and survival analyzed by observing colony formation.
# [3] = tested on: MCF-7 cells; experiment: Mitotic arrest of MCF-7 cells, counting mitotic cells by microscopy (mitotic spreads); assay type: cell-based, human
# Experimental: as §1
# Screens for Antimitotic Agents. MCF-7 cells were incubated for 20 hours with different concentrations of the antimitotic drug paclitaxel, and the proportion of cells arrested in mitosis was measured by counting mitotic cells in the microscope, and by ELISA. Paclitaxel induced mitotic arrest in a concentration-dependent manner with half-maximal activity at 10 nM measured by microscopy (FIG. 1A) and at 4 nM measured by ELISA (FIG. 1B, □)
# Further comparison of the antimitotic activities of eleutherobin and desmethyleleutherobin was done using microscopic examination of a standard cell spread.
# [4] = tested on: MCF-7 cells; experiment: Western blot with TG-3 antibody, densitometric scanning of the 105-kDa band; assay type: cell-based, human; conditions: cells treated for 20 hours with nocodazole vs cycling MCF-7 cells
# Experimental: The TG-3 monoclonal antibody, originally described as a marker of Alzheimer's disease, is highly specific for mitotic cells. […] In Western blots, the antibody reacts with a 105-kDa protein identified as a mitotically phosphorylated form of nucleolin, that is present in abundance in extracts of cells treated for 20 hours with the antimitotic agent nocodazole but present at only low levels in extracts from cycling MCF-7 cells. Densitometric scanning of the bands on Western blots in these examples show a 27-fold difference in intensity between nocodazole-treated and untreated cells, corresponding well to the difference in the number of mitotic cells in the two samples: 80% for the nocodazole-treated sample and 3% for the untreated sample, as measured by microscopy.
# [5] = tested on: MCF-7 cells; experiment: ELISA of mitotic cells (TG-3 antibody); assay type: cell-based, human
# Experimental: TG-3 also recognizes mitotic cells in EUISA. In the ELISA assay, the cells may be grown in multi-well plates, lysed and transferred to protein-binding ELISA plates for adsorption to the plastic surface. The antigen may be detected by incubating with TG-3 antibody, an HRP-conjugated secondary antibody and performing a calorimetric determination of HRP activity.
# as §1, with “Cells treated with 100 ng/ml nocodazole (Sigma), from a 1000-fold stock in DMSO, served as positive controls. Cells were incubated for 16-20 hours.” left out
# ELISA of Mitotic Cells. […] Finally, 100 μl of 120 mM Na2HPO4, 100 mM citric acid (pH 4.0) containing 0.5 μg/ml 2,2′-azino-bis (3-ethyl-benzthiazoline-6-sulfonic acid) and 0.01% hydrogen peroxide was added for 1 hour at room temperature and absorbance at 405 nm was determined using a Dynex MRX™ plate reader.
# [6] = MCF-7 cells, FIG. 2, read-out: IC50, antimitotic activity as determined by ELICA
compound,measurement,setting,value
"COC(=O)/C1=C/[C@@H]2[C@@H](C(C)C)CC=C(C)[C@@H]2C[C@H](OC(=O)/C=C/c2cn(C)cn2)[C@]2(C)C=C[C@@]1(O)O2 [Sarcodictyin A, sarcodictyin A]",IC50,[1]; [6],~2000 nM
CO[C@]12C=C[C@](C)(O1)[C@@H](OC(=O)/C=C\c1cn(C)cn1)C[C@H]1C(C)=CC[C@H](C(C)C)[C@H]1/C=C\2CO[C@@H]1OC[C@@H](O)[C@@H](O)[C@@H]1OC(C)=O [Z-eleutherobin],IC50,[1]; [6],~250 nM
CO[C@]12C=C[C@](C)(O1)[C@@H](OC(=O)/C=C/c1cn(C)cn1)C[C@@H]1[C@H](/C=C\2CO[C@@H]2OC[C@@H](O)[C@@H](O)[C@@H]2OC(C)=O)[C@@H](C(C)C)C=C[C@@]1(C)O [caribaeoside],IC50,[1]; [6],~20000 nM
CC(=O)O[C@@H]1[C@H](OC/C2=C/[C@@H]3[C@@H](C(C)C)CC=C(C)[C@@H]3C[C@H](OC(=O)/C=C/c3cn(C)cn3)[C@]3(C)C=C[C@@]2(O)O3)OC[C@@H](O)[C@H]1O [desmethyleleutherobin],overt toxicity to the mice,"[2]; intraperitoneal injection, C3H mice bearing SCCVII tumor",no overt toxicity
same,tumor cells killed,"[2]; intraperitoneal, doses of about 100 μg or more per mouse, 24 hours, FIG. 5",about 90%
same,IC50,[1]; [6],~20 nM
same,IC50,"[3]; MCF-7 cells, FIG. 4, read-out: IC50, antimitotic activity by microscopic examination of a standard cell spread",~25 nM
CO[C@]12C=C[C@](C)(O1)[C@@H](OC(=O)/C=C/c1cn(C)cn1)C[C@H]1C(C)=CC[C@H](C(C)C)[C@H]1/C=C\2COC1OCC(O)C(O)C1OC(C)=O (stereo partly drawn) [eleutherobin],IC50,"[1]; Homo sapiens, MCF7, read-out: IC50, antimitotic activity as determined by ELICA",~100 nM
same,IC50,"[3]; Homo sapiens, MCF7, read-out: IC50, antimitotic activity by microscopic examination of a standard cell spread",~200 nM
CO[C@]12C=C[C@](C)(O1)[C@@H](OC(=O)/C=C/c1cn(C)cn1)C[C@H]1C(C)=CC[C@H](C(C)C)[C@H]1/C=C\2CO[C@@H]1OC[C@@H](O)[C@@H](OC(C)=O)[C@@H]1O [isoeleutherobin A],IC50,[1]; [6],~50 nM
COC(=O)Nc1nc2ccc(C(=O)c3cccs3)cc2[nH]1 [nocodazole],difference in band intensity between treated and untreated cells (TG-3 Western blot),[4],27 fold
same,number of mitotic cells as measured by microscopy,"[3]; cells treated for 20 hours with nocodazole, untreated sample 3%",80%
CC(=O)O[C@H]1C(=O)[C@@]2(C)[C@H]([C@H](OC(=O)c3ccccc3)[C@]3(O)C[C@H](OC(=O)[C@H](O)[C@@H](NC(=O)c4ccccc4)c4ccccc4)C(C)=C1C3(C)C)[C@]1(OC(C)=O)CO[C@@H]1C[C@@H]2O [paclitaxel],EC50,"[1]; Homo sapiens, MCF7, MCF-7 cells, FIG. 1B, read-out: half-maximal activity, mitotic arrest detected by ELICA",1.5 nM
same,EC50,"[5]; Homo sapiens, MCF7, 20 hours incubation, FIG. 1B, read-out: half-maximal activity, mitotic arrest measured by ELISA",4 nM
same,EC50,"[3]; Homo sapiens, MCF7, MCF-7 cells, 20 hours incubation, FIG. 1A, read-out: half-maximal activity, mitotic arrest measured by microscopy",10 nM
WF-1360 [Compound A],IC50,[5]; read-out: half-maximal antimitotic activity (IC50) as determined by ELISA,52 nM
caribaeolin,IC50,[1]; [6],~20000 nM
desacetyleleutherobin,IC50,[1]; [6],~400 nM
